Measurements as given in ChEMBL document CHEMBL1201862, “PubChem BioAssay data set” (2004).
Calls of active or inactive are those of the source.

How the values were obtained:
[1] = biological target: Dual specificity protein phosphatase 3 (Homo sapiens, UniProt P51452); assay: inhibition constants for human DUSP3 – biochemical, colorimetric, SAR follow-up (AID 2004)
[2] = biological target: Melanin-concentrating hormone receptor 1 (Homo sapiens, UniProt Q99705); assay: Fluorescence-based counterscreen for antagonists of the G-protein coupled receptor 7 (GPR7): cell-based high throughput dose response assay to identify antagonists of the melanin-concentrating hormone receptor 1 (MCHR1).; type: functional
[3] = biological target: Disintegrin and metalloproteinase domain-containing protein 17 (Homo sapiens, UniProt P78536); assay: inhibition of ADAM17 substrate cleavage – biochemical, quenched FRET substrate, counter-screen for ADAM10 exosite inhibitor project, dose response (AID 743253)
[4] = system: Streptococcus sp. 'group A'; assay: Streptococcus pyogenes SK(-)GAS viability under kanamycin – luminescence, BacTiterGlo, confirmation, counter-screen for streptokinase expression inhibitor project, dose response (AID 1900); type: functional, organism-based
[5] = system: Streptococcus; assay: GAS UMAA2166 growth inhibition – luminescence, BacTiterGlo, counter-screen for streptokinase expression inhibitor project, dose response (AID 1915); type: functional, organism-based;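 also: potency for reduction of bacterial viability or growth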
[6] = system: Streptococcus; assay: Luminescence Microorganism-Based Dose Response Follow up to Identify Compounds Cytotoxic to Streptococcus. [Related pubchem assays: 1677 (Project Summary), 1915, 1914, 1902 (Retest at Dose), 1900 (Counter Screen), 1662 (Primary HTS)]; type: functional, organism-based
[7] = biological target: T1, Streptokinase A (Streptococcus pyogenes serotype M1, UniProt P10520); assay: viability-normalized secreted streptokinase activity reduction – plasminogen activation absorbance, OD405, dose response (AID 1914); type: functional, Streptococcus pyogenes M1 GAS;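 also: secreted streptokinase activity via plasminogen activation per viability signal from cell pellet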
T1 sequence (P10520 whole entry): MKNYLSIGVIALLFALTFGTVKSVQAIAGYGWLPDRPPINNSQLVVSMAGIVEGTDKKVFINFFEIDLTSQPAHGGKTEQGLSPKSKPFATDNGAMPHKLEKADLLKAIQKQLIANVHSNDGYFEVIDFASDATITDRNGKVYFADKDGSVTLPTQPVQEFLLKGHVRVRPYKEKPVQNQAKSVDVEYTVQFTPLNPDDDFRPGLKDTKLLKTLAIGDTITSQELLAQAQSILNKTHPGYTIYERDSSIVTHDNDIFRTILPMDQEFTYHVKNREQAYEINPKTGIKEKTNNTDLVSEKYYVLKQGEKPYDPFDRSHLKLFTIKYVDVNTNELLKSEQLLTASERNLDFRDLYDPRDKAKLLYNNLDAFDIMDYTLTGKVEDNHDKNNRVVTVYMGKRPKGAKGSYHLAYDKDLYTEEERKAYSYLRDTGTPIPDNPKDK

[8] = biological target: Lysosomal acid glucosylceramidase (Homo sapiens, UniProt P04062); assay: Dose response cell-based high throughput screening assay to identify enhancers of beta-glucosidase activity. [Related pubchem assays: 784 ]; type: functional
[9] = biological target: T2, Leucine aminopeptidase (Plasmodium falciparum 3D7, UniProt Q8IL11); assay: P. falciparum M17LAP inhibitors, primary screen, biochemical, fluorogenic H-Leu-NHMec substrate, 1536-well (AID 1619); type: functional
T2 sequence (Q8IL11 whole entry): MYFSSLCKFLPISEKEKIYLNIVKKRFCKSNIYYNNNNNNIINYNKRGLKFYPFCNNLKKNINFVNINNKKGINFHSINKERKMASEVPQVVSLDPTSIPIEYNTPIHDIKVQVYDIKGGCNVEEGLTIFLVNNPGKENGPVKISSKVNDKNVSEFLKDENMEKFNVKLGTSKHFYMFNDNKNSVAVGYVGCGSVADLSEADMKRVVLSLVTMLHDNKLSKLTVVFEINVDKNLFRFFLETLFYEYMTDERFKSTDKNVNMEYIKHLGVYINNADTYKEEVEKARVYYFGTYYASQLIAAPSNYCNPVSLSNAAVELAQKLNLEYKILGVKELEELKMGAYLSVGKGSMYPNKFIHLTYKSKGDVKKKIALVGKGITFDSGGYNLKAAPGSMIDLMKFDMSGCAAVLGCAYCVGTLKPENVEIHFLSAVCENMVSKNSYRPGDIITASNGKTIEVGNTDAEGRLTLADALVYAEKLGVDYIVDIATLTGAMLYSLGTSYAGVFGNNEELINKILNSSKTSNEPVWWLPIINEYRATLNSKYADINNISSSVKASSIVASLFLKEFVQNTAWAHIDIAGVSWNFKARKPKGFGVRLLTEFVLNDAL

[10] = Luminescence Cell-Based Dose Retest to Confirm Inhibitors of Cancer Stem Cells. [Related pubchem assays (depositor defined):AID2717, AID2721]; type: functional; settings: Homo sapiens
[11] = biological target: Neurotensin receptor type 1 (Homo sapiens, UniProt P30989); type: functional;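 also: Image-based confirmatory dose-response assay measuring agonist activity at NTR1; NTR1-expressing U2OS osteosarcoma cells imaged for beta-arrestin GFP spot formation; agonist potency where compounds increase beta-arrestin recruitment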
[12] = antiviral protection against BTV-induced cell death – arbovirus, BSR cells, confirmation (AID 1250); type: functional;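 also: protection from viral cytopathic effect measured as cell viability by ATP luminescence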
[13] = fluconazole-exposed Candida albicans growth modulators – fluorescence, retest, confirmation (AID 2467); type: functional, cell-based
[14] = biological target: T3, Fatty acid synthase (Homo sapiens, UniProt P49327); assay: inhibition of human FAS-TE enzyme activity – biochemical, kinetic fluorescence intensity, dose response (AID 624326); type: functional;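 also: rate of fluorescence rise from hydrolysis of a fluorogenic O-methyl fluorescein ester substrate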
[15] = CCR5-tropic HIV-1 fusion blockers – cell-based, CCR5-tropic Env, dose response (AID 2279); type: functional
[16] = biological target: T3, Fatty acid synthase; assay: inhibition of human FAS-TE enzyme activity – biochemical, endpoint fluorescence intensity, uHTS hits, dose response (AID 624327); type: functional;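 also: fluorescence from hydrolysis of an O-methyl fluorescein acyl ester substrate by the enzyme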
[17] = biological target: Aminopeptidase N (Plasmodium falciparum FcB1/Columbia, UniProt O96935); assay: malaria alanyl aminopeptidase activity blockers – biochemical, fluorogenic H-Leu-NHMec substrate, 1536-well (AID 1445); set-up: species or system Plasmodium falciparum 3D7, 3D7
[18] = NIH-3T3 fibroblast cytotoxicity, dose response, cytotoxicity control, cell-based, fluorescence, Alamar Blue, secondary assay (AID 2327); type: functional;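 also: NIH-3T3 mouse fibroblasts cultured with fluconazole at 8 µg/mL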
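For AC50 in this document: cells exposed to compound for roughly 70 hours or longer before luminescence read.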

T3 sequence (P49327 whole entry, the tested form may be a part): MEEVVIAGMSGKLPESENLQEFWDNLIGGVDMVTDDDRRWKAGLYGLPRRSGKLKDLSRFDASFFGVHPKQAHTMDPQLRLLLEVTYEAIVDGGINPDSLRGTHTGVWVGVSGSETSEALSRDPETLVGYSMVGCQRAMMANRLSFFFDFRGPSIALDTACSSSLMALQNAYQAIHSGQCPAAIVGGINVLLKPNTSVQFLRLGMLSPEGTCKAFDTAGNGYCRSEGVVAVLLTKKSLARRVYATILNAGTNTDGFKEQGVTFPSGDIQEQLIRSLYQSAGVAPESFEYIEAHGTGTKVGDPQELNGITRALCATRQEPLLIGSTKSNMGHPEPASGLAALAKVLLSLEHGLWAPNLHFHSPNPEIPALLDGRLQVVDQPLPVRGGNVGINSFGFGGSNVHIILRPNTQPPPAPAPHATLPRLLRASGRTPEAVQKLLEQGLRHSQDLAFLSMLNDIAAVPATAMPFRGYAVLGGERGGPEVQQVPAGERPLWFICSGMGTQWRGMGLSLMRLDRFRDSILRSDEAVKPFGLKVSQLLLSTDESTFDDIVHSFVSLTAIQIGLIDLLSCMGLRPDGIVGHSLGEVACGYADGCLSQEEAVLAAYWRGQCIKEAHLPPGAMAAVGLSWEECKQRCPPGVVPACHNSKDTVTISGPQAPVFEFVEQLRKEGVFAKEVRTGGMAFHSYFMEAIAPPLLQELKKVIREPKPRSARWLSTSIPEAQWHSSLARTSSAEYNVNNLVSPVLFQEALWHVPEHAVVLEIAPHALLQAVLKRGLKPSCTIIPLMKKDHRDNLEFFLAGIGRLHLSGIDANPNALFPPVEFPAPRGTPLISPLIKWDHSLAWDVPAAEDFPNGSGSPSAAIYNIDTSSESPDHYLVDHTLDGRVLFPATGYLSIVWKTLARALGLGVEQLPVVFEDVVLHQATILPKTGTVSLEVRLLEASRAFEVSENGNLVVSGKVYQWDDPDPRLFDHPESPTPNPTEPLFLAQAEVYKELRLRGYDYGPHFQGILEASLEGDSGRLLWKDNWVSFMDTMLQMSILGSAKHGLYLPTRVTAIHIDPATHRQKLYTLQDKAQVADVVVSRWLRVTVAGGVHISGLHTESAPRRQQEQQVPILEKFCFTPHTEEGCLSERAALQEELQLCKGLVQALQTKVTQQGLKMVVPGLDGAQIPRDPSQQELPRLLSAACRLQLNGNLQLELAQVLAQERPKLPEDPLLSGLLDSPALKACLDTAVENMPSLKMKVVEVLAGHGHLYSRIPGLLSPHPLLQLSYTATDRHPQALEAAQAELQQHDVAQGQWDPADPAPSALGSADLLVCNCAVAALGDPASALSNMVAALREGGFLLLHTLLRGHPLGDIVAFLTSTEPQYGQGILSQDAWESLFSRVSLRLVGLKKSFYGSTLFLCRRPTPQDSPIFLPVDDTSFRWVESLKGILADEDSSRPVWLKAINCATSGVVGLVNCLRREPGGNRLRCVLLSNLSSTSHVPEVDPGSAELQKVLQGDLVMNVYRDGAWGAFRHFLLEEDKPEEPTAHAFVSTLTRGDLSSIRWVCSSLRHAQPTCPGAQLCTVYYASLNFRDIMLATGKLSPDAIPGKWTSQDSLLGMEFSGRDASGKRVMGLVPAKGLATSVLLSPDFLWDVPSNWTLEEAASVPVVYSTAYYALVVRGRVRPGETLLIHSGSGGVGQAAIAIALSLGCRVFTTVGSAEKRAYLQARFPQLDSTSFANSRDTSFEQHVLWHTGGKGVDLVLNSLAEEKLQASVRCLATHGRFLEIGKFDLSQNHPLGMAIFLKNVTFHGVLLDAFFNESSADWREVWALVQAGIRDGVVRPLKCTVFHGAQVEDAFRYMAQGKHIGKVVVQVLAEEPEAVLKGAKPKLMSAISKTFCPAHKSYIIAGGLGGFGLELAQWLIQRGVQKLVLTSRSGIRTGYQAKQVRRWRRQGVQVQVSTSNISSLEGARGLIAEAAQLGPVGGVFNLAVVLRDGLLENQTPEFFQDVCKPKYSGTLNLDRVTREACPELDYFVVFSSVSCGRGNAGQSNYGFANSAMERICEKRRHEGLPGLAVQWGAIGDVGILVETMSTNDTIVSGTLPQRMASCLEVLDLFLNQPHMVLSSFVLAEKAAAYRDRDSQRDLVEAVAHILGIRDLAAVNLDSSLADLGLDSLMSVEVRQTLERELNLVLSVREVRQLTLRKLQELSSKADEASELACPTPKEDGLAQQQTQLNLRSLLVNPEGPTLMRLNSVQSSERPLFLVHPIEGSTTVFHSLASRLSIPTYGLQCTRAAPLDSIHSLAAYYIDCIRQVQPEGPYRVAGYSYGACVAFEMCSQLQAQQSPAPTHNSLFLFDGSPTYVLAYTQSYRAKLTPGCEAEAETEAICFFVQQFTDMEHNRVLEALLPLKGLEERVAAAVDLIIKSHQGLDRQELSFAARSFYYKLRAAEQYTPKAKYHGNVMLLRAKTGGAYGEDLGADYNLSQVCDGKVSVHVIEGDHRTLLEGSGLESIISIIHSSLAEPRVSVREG
Chain of Melanin-concentrating hormone receptor 1 (Q99705 whole entry, the tested form may be a part): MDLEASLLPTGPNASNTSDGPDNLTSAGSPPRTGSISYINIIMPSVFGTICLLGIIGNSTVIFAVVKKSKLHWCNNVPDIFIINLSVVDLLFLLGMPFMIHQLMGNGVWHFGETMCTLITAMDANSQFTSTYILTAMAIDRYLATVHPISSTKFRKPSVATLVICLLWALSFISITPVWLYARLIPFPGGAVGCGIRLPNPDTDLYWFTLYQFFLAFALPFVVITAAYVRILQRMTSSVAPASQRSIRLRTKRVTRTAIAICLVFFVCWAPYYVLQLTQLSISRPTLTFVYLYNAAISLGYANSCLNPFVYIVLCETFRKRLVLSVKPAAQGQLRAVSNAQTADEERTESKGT
Chain of Lysosomal acid glucosylceramidase (P04062 whole entry): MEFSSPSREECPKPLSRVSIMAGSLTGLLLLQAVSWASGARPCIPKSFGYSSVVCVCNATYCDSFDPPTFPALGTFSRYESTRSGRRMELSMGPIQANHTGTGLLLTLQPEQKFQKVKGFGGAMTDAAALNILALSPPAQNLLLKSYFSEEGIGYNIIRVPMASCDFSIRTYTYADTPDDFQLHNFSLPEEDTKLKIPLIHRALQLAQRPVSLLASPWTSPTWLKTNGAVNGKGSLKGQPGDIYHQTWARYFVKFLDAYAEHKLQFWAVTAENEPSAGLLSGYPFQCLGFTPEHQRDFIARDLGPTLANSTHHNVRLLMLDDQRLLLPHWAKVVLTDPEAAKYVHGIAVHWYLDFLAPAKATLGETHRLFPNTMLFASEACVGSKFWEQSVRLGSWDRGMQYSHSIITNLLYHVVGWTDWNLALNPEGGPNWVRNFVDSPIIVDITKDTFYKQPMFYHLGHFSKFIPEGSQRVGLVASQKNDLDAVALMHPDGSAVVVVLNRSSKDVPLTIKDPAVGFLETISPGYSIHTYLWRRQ
Chain of Dual specificity protein phosphatase 3 (P51452 whole entry): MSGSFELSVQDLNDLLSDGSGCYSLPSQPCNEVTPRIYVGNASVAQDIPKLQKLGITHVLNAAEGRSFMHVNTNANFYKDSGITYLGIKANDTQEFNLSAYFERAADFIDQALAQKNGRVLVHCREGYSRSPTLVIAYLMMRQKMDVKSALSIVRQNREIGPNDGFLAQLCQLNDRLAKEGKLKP
Chain of Aminopeptidase N (O96935 whole entry): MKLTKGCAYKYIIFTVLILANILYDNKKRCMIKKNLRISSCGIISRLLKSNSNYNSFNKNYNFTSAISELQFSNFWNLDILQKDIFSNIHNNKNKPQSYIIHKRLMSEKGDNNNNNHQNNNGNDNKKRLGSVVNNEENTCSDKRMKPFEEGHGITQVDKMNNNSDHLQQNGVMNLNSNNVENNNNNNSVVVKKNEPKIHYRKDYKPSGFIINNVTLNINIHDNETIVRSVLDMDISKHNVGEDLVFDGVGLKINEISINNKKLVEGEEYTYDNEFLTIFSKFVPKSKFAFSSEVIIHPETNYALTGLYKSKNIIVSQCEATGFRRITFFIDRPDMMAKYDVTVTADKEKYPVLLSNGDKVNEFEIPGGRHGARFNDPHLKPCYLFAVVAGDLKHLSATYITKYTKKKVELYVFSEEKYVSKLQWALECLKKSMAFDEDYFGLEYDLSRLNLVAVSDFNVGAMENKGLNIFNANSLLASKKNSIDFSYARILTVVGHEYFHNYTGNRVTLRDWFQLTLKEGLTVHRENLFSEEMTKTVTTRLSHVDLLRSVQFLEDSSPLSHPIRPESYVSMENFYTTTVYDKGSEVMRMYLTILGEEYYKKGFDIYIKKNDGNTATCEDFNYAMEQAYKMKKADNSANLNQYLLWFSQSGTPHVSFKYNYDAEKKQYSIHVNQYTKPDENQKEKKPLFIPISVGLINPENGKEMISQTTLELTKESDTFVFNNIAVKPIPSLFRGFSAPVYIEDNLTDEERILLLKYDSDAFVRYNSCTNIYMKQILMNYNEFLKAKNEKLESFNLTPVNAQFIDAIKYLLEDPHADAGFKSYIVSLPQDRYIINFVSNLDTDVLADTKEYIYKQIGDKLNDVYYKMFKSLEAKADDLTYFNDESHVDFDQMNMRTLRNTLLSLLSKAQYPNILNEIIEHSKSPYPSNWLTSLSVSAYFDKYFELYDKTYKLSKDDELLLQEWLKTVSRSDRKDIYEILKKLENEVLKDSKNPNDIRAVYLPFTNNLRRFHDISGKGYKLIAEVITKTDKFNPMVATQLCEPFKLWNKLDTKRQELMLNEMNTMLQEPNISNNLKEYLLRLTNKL
Chain of Neurotensin receptor type 1 (P30989 whole entry): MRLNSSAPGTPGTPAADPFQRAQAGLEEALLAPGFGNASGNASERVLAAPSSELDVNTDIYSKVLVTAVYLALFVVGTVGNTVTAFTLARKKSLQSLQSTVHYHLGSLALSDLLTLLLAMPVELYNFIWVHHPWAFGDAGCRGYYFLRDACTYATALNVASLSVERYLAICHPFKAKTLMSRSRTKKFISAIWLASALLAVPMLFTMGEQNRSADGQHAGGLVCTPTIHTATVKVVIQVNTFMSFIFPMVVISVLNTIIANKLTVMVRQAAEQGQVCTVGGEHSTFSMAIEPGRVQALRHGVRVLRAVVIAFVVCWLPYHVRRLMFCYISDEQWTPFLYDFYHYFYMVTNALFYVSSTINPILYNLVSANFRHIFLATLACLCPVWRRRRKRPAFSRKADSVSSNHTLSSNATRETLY

With `Cc1ccc(-c2ccccc2)n1-c1ccc(O)c(C(=O)O)c1` the Ki [1] was 80.3 µM (inactive).
With `N=C(N)NS(=O)(=O)c1ccc(NC(=S)NC(=O)Cc2ccc(Cl)cc2)cc1` the IC50 [2] was 21.8 µM (not active).
With `Cc1cccc(C)c1OCC(O)Cn1c2ccccc2c2ccccc21` (stereo not drawn) the IC50 [3] was > 69.5 µM (inactive), the EC50 [4] was 6.75 µM (active) and the EC50 [5] was 7.9 µM (active). The EC50 [6] was 9.21 µM (active) and the EC50 [7] was 3.98 µM (active).
For `O=C(CN1C(=O)c2ccccc2S1(=O)=O)NCCSC1CCCCC1`, the EC50 [8] was > 10 µM (not active) and the IC50 [9] was 9.32 µM (active).
With `CC(C)CN1C(=O)/C(=C/c2c[nH]nc2-c2ccccc2)SC1=S` the AC50 [10] was 2.59 µM (active) and the EC50 [11] was 15 µM (active).
With `COc1cc(/C=C(\C#N)c2nc3ccccc3s2)cc([N+](=O)[O-])c1O` the IC50 [12] was 33.7 µM (active), the EC50 [13] was > 38 µM (not active) and the IC50 [14] was 10 µM (active). For the same molecule, the IC50 [15] was > 50 µM (active), the IC50 [16] was 12.4 µM (active) and the IC50 [17] was 11 µM (active). The EC50 [18] was > 150 µM (inactive).
